{"source": "patent US11466020B2", "about": "“Compounds and compositions for inhibition and elimination of Zika infection and uses for same” (Cornell University, priority 2017, dated 2022)", "key": {"[1]": {"system": "ZIKV MR766", "assay": "Inhibition of ZIKV infection of hNPCs (high content screen / inhibitory curve, ZIKV E staining)", "type": "cell-based, Zika virus", "conditions": "20 μM Merbromin, 72 h after ZIKV infection", "method": "A high content chemical screen identifies compounds that inhibit ZIKV infection of hNPCs. To identify drugs that inhibit ZIKV infection, we screened the Prestwick library that includes 1120 FDA-approved drug and drug candidates, selected for known bioavailability and safety in humans. To perform the screen, hNPCs seeded in 384-well plates were treated with each compound from the library or vehicle control (DMSO) for 1 hour, followed by addition of ZIKV MR766 at a MOI=0.125. After two hour of inoculation with ZIKV, the virus-containing medium was replaced by fresh virus-free medium and compounds were replenished for each well (See Methods). After an additional three days of culture, cells were fixed and stained with antibodies against the ZIKV envelop protein (ZIKV E) and a cell proliferation marker Ki67 (FIG. 1A). The percentages of ZIKV E^+ cells, Ki67^+ cells and total cell number were quantified by an automated imaging and analysis system. A two dimensional analysis was performed to choose the primary hit compounds (FIG. 5A). The X-axis represents the fold change of total cell number, which was calculated by dividing the total cell number of the chemical-treated well by the average total cell number of DMSO-treated wells. The Y-axis represents the fold change of the percentage of ZIKV infected cells, which was calculated by dividing the percentage of cells expressing ZIKV E in each chemical-treated well by the average of the percentage of cells expressing ZIKV E from DMSO-treated wells. […] Based on the fold change of the percentage of ZIKV infection, the signal-to-basal (S/B) ratio is 4.2 and the coefficient of variation (CV) is 6.9%. The Z factor is 0.59 indicating a robust screening system.\nhNPCs were plated on 96-well plates at 8.5×10^4/cm^2. After overnight incubation, hNPCs were infected with ZIKV (MR766 strain, MOI=0.125) for 2 h, and changed to virus-free medium. The cells were maintained in NPC medium with daily medium change. Three days later, the supernatant and cells were collected and used for assays. hESC-derived forebrain organoids were infected with ZIKV MR766 (5×10^5 PFU/ml) for 24 h. After removal of virus containing medium, forebrain organoids were maintained in forebrain organoid medium for an additional 3 or 17 days and then used for assays.\nHigh-content Screen. hNPCs were dissociated and plated on Matrigel-coated 384-well plates for the chemical screen. […] DMSO was used as a negative control. ZIKV MR766 was added at MOI=0.125. After 2 hour infection, the supernatant was replaced with fresh medium and compounds from the same chemical library were added to the same wells. After an additional 3 days incubation, cells were fixed, stained with antibodies against ZIKV envelop protein (ZIKV E) and proliferation marker Ki67, and analyzed with the ImageXpress^MICRO Automated High-Content Analysis System. […] X-axis represents the fold change of total cell number, which was calculated by dividing the total cell number of the chemical treated well by the average of total cell number of DMSO treated wells. Y-axis represents the fold change of the percentage of ZIKV infection, which was calculated by dividing the percentage of ZIKV infection of the chemical treated well by the average of the percentage of ZIKV infection of DMSO treated wells. The compounds in which the fold change of total cell number >1 and the fold change of the percentage of ZIKV infection <20% were further evaluated. […]"}, "[2]": {"system": "hNPCs", "assay": "hNPC viability, proliferation, apoptosis and identity", "type": "cell-based, human", "conditions": "20 μM Merbromin, 72 h after ZIKV infection", "method": "(A) Scheme of high content chemical screen. (B) Chemical structure of hit compounds. (C) Inhibitory curve and IC50 of HH or AQ on hNPCs (n=6). (D-H) Immunocytochemistry analysis (D), the quantification of the infection rate (E), the quantification of proliferation rate (F), the quantification of cell apoptosis rate (G) and the normalized cell viability (H) of hNPCs at 72 h after ZIKV (MR 766 strain) infection with or without drug treatment. Scale bars, 100 μm. The ZIKV infection rate is defined as the percentage of ZIKV E^+ cells. The proliferation rate is defined as the percentages of Ki67^+ cells. The cell apoptosis rate was defined as the percentage of cleaved-Caspase 3/CAS3^+ cells. The normalized cell viability was calculated by dividing the total cell number of each condition by the total cell number under mock infection conditions. (n=6). (I) qRT-PCR analysis to monitor the total ZIKV vRNA in the supernatant of hNPC cultures at 72 h after ZIKV infection with or without drug treatment. (J) Vero cell reinfection assay to monitor the ZIKV infectious particles in the supernatant of hNPC cultures with or without drug treatment. To perform the Vero cell reinfection assay, hNPCs at 72 h after ZIKV infection were washed three times and changed to drug free medium for an additional 24 h. Vero cells were infected with the supernatant collected from hNPCs for 2 h and changed to virus free medium for an additional 24 h. Vero cells were stained with antibody against ZIKV E and DAPI. Scale bars, 200 μm. (n=3). (K) Quantification of ZIKV infectious particles produced by ZIKV-infected hNPCs with or without compound treatment by the Vero cell reinfection assay. (L) Heatmap analysis of mock-infected hNPCs treated with DMSO (mock); mock infected hNPCs treated with 25 μM HH (HH), mock-infected hNPCs treated with 15 μM AQ (AQ), ZIKV (MR766 strain, MOI=0.125) infected hNPCs treated with DMSO (ZIKV+DMSO); ZIKV-infected hNPCs treated with 25 μM HH (ZIKV+HH), and ZIKV-infected hNPCs treated with 15 μM AQ (ZIKV+AQ). […] (M and N) Immunocytochemistry analysis (M) and quantification of the infection rate (N) of hNPCs at 72 h after ZIKV (PRVABC59 strain) infection with or without drug treatment (n=6). Scale bars, 100 μm. p values were calculated by one-way repeated measures ANOVA with a Bonferroni test for multiple comparisons. *p<0.05, **p<0.01 and ***p<0.001.\n(A) Scheme to evaluate the elimination of ZIKV. At day 0, hNPCs were infected with ZIKV for 2 h. After removal of ZIKV infection medium, hNPCs were treated with drug candidates. At day 3, the culture medium was changed to fresh medium without compounds. The cells were maintained in drug-free culture until day 6 and used for immunohistochemistry and qRT-PCR. (B and C) Inhibitory curve and IC50 of HH calculated based on the infection rate (B) and normalized cell viability (C) (n=6). (D and E) Immunocytochemistry analysis (D) and the quantification of infection rate, cell apoptosis rate, and total cell number (E) of hNPCs on day 3 and day 6. Cells was fixed and stained with cleaved Caspase-3 (CAS3), ZIKV E and DAPI. Scale bars, 100 μm. (F) qRT-PCR analysis to monitor the total ZIKV vRNA in the supernatant of hNPC cultures on day 6. Scale bars, 200 μm. (n=3). (G) Vero cell reinfection assay to monitor the infective ZIKV vRNA in the supernatant of hNPC cultures at day 6 after ZIKV infection. Scale bars, 200 μm. (n=3). (H) Quantification of ZIKV infectious particles produced by ZIKV-infected hNPCs at day 6 by the Vero cell reinfection assay. (I) hNPCs with or without ZIKV infection treated with HH maintain hNPC marker expression and differentiation capacity. hNPCs with or without ZIKV MR766 infection were treated with 25 μM HH or DMSO for 3 days and then stained for SOX2, NESTIN and with DAPI. hNPCs with or without ZIKV infection and treated with HH or DMSO for 3 days were differentiated to cortical neurons. The cortical neurons were then fixed and stained for MAP2, TUJ1 and with DAPI. Scale bars, 100 μm. (n=3). […]"}}, "data": [{"molecule": "O=C([O-])c1ccccc1-c1c2cc(Br)c(=O)cc-2oc2[c]([Hg+])c([O-])c(Br)cc12.[Na+].[Na+].[OH-]", "note": "[Merbromin]", "values": [{"measurement": "ZIKV infection of hNPCs", "setting": "[1]", "result": "did not affect ZIKV infection"}, {"measurement": "hNPC proliferation in ZIKV infected hNPCs", "setting": "[2]", "result": "significantly increased"}, {"measurement": "total cell loss in ZIKV infected hNPCs", "setting": "[2]", "result": "rescued the total cell loss"}]}]}
